Data taken from patent US9352015B2, “Antimicrobial peptides” (priority 2009, dated 2016).
In brackets after ≈: the same amount, converted by molar mass. Several values for one entry are separate records, joined by “and”; a condition that tells them apart may be missing. Equal values may be shown once. Read-outs that look alike come from different tables or passages of the source.

Key:
Acinetobacter baumannii = type: cell-based
Protocol: (§1) Minimal inhibitory concentrations (MICs) are determined using a standard microtiter dilution method, with 3 sets of determinations, in LB (Luria-Bertani) no-salt medium (10 g of tryptone and 5 g of yeast extract per liter). In some cases, Mueller Hinton (MH) medium or Brain Heart Infusion (BHI) medium is used.
(§2) Briefly, cells were grown overnight at 37° C. in LB and diluted in the same medium. Serial dilutions of the peptides are added to the microtiter plates in a volume of 100 μl followed by 10 μl of bacteria to give a final inoculum of 5×10^5 colony-forming units/ml. Plates are incubated at 37° C. for 24 hours and MICs determined as the lowest peptide concentration that inhibited growth. Alternatively, minimal inhibitory concentrations are determined using a standard microtiter dilution method in a Mueller-Hinton (MH) medium. Briefly, cells are grown overnight at 37° C. in MH broth and diluted in the same medium. In some cases, serial dilutions of the peptides are added to the microtiter plates in a volume of 100 μl followed by 10 μl of bacteria to give a final inoculum of 1×10^5 colony-forming units/ml. Plates are incubated at 37° C. for 24 hours and MICs are determined as the lowest peptide concentration that inhibited growth.
The biological activities of these six peptide analogs was determined against 11 clinical isolated of Acinetobacter baumannii (Table 9). Please note that the activities are reported in micromolar rather than microgram/ml. This allows a direct comparison on a molar basis with the effectiveness of molecules of different molecular weights whether peptides disclosed herein or antibiotics which in general are smaller in molecular mass. […] These are the highest antimicrobial activities observed in studies of antimicrobial peptides derived by modifying the peptide sequence of SEQ ID NO:24 (D1). D22 has the best hemolytic activity of the six analogs (D17-D22) and a therapeutic index of […] compared to […] for D1 (Table 9). D22 has no apparent advantage over D1 as determined in these experiments.

[1] = Hemolytic activity against human erythrocytes (HC50 / MHC, microtiter dilution); type: cell-based; settings: human, 1% human erythrocytes, pH 7.4
Protocol: Hemoglobin release was determined spectrophotometrically at 570 nm. The hemolytic activity was determined as the peptide concentration that caused 50% hemolysis of erythrocytes after 18 h (HC50). […] HC50 was determined by a plot of peptide concentration versus percent lysis.

Pseudomonas aeruginosa = settings: for MIC PAO 1: 37° C., 24 h, strain PAO1; for MIC GM (geometric mean of the MIC values): six P. aeruginosa strains; for MIC CP 204: strain CP204; for MIC M 2: strain M2; for MIC PA 14: strain PA14; for MIC PAK: strain PAK; for MIC WR 5: strain WR5
[2] = test system: Methicillin Resistant Staphylococcus aureus (MRSA) and Staphylococcus aureus; type: cell-based
Protocol: as §1, §2
Identification of Antimicrobial Peptides for Gram-positive Bacteria. In a manner similar to testing against gram-negative bacteria, experiments were carried out to screen the 14 peptides used to identify antimicrobial peptides with significant activity against A. baumanii shown above against 20 different clinical isolates of Methicillin Resistant Staphylococcus aureus (MRSA) and Staphylococcus aureus.

[3] = RP-HPLC temperature profiling (peptide self-association parameter PA); type: physicochemical; settings: RP-HPLC temperature profiling 5-80° C., pH 2, relative to control peptide C
Protocol: Temperature profiling analyses were performed on the same column in 3° C. increments, from 5° C. to 80° C., using a linear AB gradient of 0.5% acetonitrile/min, as described previously (30, 53, 92, 93).
Peptide self-association (i.e., the ability to oligomerize/dimerize) in aqueous solution is a very important parameter for antimicrobial activity (53, 92, 93). Without wishing to be bound by any particular theory, the present inventors postulated that monomeric random-coil antimicrobial peptides are best suited to pass through the capsule and cell wall of microorganisms prior to penetration into the cytoplasmic membrane, induction of α-helical structure and disruption of membrane structure to kill target cells (93). Thus, if the self-association ability of a peptide in aqueous media is too strong (e.g., forming stable folded dimers through interaction of their non-polar faces) this could decrease the ability of the peptide to dissociate to monomer, in addition oligomerization of the peptide can prevent it from effectively passing through the capsule and cell wall to reach the membrane. The ability of the peptides in the present study to self-associate was determined by the technique of RP-HPLC temperature profiling at pH 2 (29, 30, 38). The reason pH 2 is used to determine self-association of cationic AMPs is that highly positively charged peptides are frequently not eluted from reversed-phase columns at pH 7 due to non-specific binding to negatively charged silanols on the column matrix. This is not a problem at pH 2 since the silanols are protonated (i.e., neutral) and non-specific electrostatic interactions are eliminated. At pH 2, the interactions between the peptide and the reversed-phase matrix involve ideal retention behavior, i.e., only hydrophobic interactions between the preferred binding domain (nonpolar face) of the amphipathic molecule and the hydrophobic surface of the column matrix are present (39). […] Control peptide C is a monomeric random coil peptide in both aqueous and hydrophobic media; thus, its linear decrease in peptide retention behavior with increasing temperature within the range of 5° C. to 80° C. represents only the general effects of temperature due to greater solute diffusivity and enhanced mass transfer between the stationary and mobile phase at higher temperatures (55). To allow for these general temperature effects, the data for the control peptide was subtracted from each temperature profile as shown in FIG. 2B. Thus, the peptide self-association parameter, PA, represents the maximum change in peptide retention time relative to the random coil peptide C. Note that the higher the PA value, the greater the self-association.

[4] = RP-HPLC retention as measure of overall peptide hydrophobicity; type: physicochemical; settings: pH 2, room temperature
Protocol: Crude and purified peptides were analyzed on an Agilent 1100 series liquid chromatograph (Little Falls, Del.). Runs were performed on a Zorbax 300 SB-C8 column (150×2.1 mm I.D.; 5 μm particle size, 300 Å pore size) from Agilent Technologies using linear AB gradient (1% acetonitrile/min) and a flow rate of 0.25 ml/min, where eluant A was 0.2% aqueous TFA, pH 2 and eluant B was 0.2% TFA in acetonitrile.

CC[C@@H](C)[C@@H](NC(=O)[C@@H](C)NC(=O)[C@@H](CCCCN)NC(=O)[C@@H](CC(C)C)NC(=O)[C@@H](CC(C)C)NC(=O)[C@H](NC(=O)[C@@H](CCCCN)NC(=O)[C@@H](CC(C)C)NC(=O)[C@@H](C)NC(=O)[C@@H](CCCCN)NC(=O)[C@@H](CCCCN)NC(=O)[C@@H](CCCCN)NC(=O)[C@@H](C)NC(=O)[C@@H](CCCCN)NC(=O)[C@@H](CO)NC(=O)[C@@H](Cc1ccccc1)NC(=O)[C@H](NC(=O)[C@@H](CCCCN)NC(=O)[C@@H](CC(C)C)NC(=O)[C@@H](Cc1ccccc1)NC(=O)[C@@H](CO)NC(=O)[C@@H](CCCCN)NC(=O)[C@@H](Cc1c[nH]c2ccccc12)NC(=O)[C@@H](CO)NC(C)=O)[C@H](C)O)[C@H](C)O)C(=O)N[C@H](CO)C(=O)N[C@H](CO)C(N)=O [Peptide D20, Ac-SWKSFLKTFSKAKKKALKTLLKAISS-amide]
MIC GM (geometric mean) (Acinetobacter baumannii): 0.6 µM (≈ 1.79 µg/mL)
HC50 at 18 h [1]: 77 µg/mL and 25.8 µM
MIC PAO 1 (Pseudomonas aeruginosa; Brain Heart Infusion medium): 7.8 µg/mL (≈ 2.62 µM)
MIC GM (geometric mean of the MIC values) (Pseudomonas aeruginosa; Brain Heart Infusion medium): 9.8 µg/mL
MIC CP 204 (Pseudomonas aeruginosa; Brain Heart Infusion medium): 15.6 µg/mL (≈ 5.23 µM)
MIC M 2 (Pseudomonas aeruginosa; Brain Heart Infusion medium): 7.8 µg/mL (≈ 2.62 µM)
MIC PA 14 (Pseudomonas aeruginosa; Brain Heart Infusion medium): 7.8 µg/mL (≈ 2.62 µM)
MIC PAK (Pseudomonas aeruginosa; Brain Heart Infusion medium): 15.6 µg/mL (≈ 5.23 µM)
MIC WR 5 (Pseudomonas aeruginosa; Brain Heart Infusion medium): 7.8 µg/mL (≈ 2.62 µM)
MIC PAO 1 (Pseudomonas aeruginosa; Mueller Hinton medium): 7.8 µg/mL (≈ 2.62 µM)
MIC GM (geometric mean of the MIC values) (Pseudomonas aeruginosa; Mueller Hinton medium): 12.4 µg/mL
MIC CP 204 (Pseudomonas aeruginosa; Mueller Hinton medium): 31.3 µg/mL (≈ 10.5 µM)
MIC M 2 (Pseudomonas aeruginosa; Mueller Hinton medium): 15.6 µg/mL (≈ 5.23 µM)
MIC PA 14 (Pseudomonas aeruginosa; Mueller Hinton medium): 7.8 µg/mL (≈ 2.62 µM)
MIC PAK (Pseudomonas aeruginosa; Mueller Hinton medium): 7.8 µg/mL (≈ 2.62 µM)
MIC WR 5 (Pseudomonas aeruginosa; Mueller Hinton medium): 15.6 µg/mL (≈ 5.23 µM)
MIC GM (geometric mean) [2]: 6.0 µM (≈ 17.9 µg/mL)
PA (dimerization / self-association parameter) [3]: 6.39
Hydrophobicity (retention time in RP-HPLC) [4]: 95.90 min

CC[C@@H](C)[C@@H](NC(=O)[C@@H](C)NC(=O)[C@@H](CCCCN)NC(=O)[C@@H](CC(C)C)NC(=O)[C@@H](CC(C)C)NC(=O)[C@H](NC(=O)[C@@H](CCCCN)NC(=O)[C@@H](CC(C)C)NC(=O)[C@@H](C)NC(=O)[C@@H](CCCCN)NC(=O)[C@@H](CCCCN)NC(=O)[C@@H](CCCCN)NC(=O)[C@@H](C)NC(=O)[C@@H](CCCCN)NC(=O)[C@@H](CO)NC(=O)[C@@H](Cc1ccccc1)NC(=O)[C@H](NC(=O)[C@@H](CCCCN)NC(=O)[C@@H](CC(C)C)NC(=O)[C@@H](Cc1ccccc1)NC(=O)[C@@H](CO)NC(=O)[C@@H](CCCCN)NC(=O)[C@@H](Cc1c[nH]c2ccccc12)NC(=O)[C@@H](CO)NC(C)=O)[C@H](C)O)[C@H](C)O)C(=O)N[C@H](CO)C(=O)N[C@H](CCCCN)C(N)=O [Peptide D21, Ac-SWKSFLKTFSKAKKKALKTLLKAISK-amide]
MIC GM (geometric mean) (Acinetobacter baumannii): 1.1 µM (≈ 3.33 µg/mL)
HC50 at 18 h [1]: 88.5 µg/mL and 29.3 µM
MIC PAO 1 (Pseudomonas aeruginosa; Brain Heart Infusion medium): 15.6 µg/mL (≈ 5.16 µM)
MIC GM (geometric mean of the MIC values) (Pseudomonas aeruginosa; Brain Heart Infusion medium): 6.2 µg/mL
MIC CP 204 (Pseudomonas aeruginosa; Brain Heart Infusion medium): 15.6 µg/mL (≈ 5.16 µM)
MIC M 2 (Pseudomonas aeruginosa; Brain Heart Infusion medium): 3.9 µg/mL (≈ 1.29 µM)
MIC PA 14 (Pseudomonas aeruginosa; Brain Heart Infusion medium): 3.9 µg/mL (≈ 1.29 µM)
MIC PAK (Pseudomonas aeruginosa; Brain Heart Infusion medium): 3.9 µg/mL (≈ 1.29 µM)
MIC WR 5 (Pseudomonas aeruginosa; Brain Heart Infusion medium): 3.9 µg/mL (≈ 1.29 µM)
MIC PAO 1 (Pseudomonas aeruginosa; Mueller Hinton medium): 7.8 µg/mL (≈ 2.58 µM)
MIC GM (geometric mean of the MIC values) (Pseudomonas aeruginosa; Mueller Hinton medium): 6.2 µg/mL
MIC CP 204 (Pseudomonas aeruginosa; Mueller Hinton medium): 15.6 µg/mL (≈ 5.16 µM)
MIC M 2 (Pseudomonas aeruginosa; Mueller Hinton medium): 15.6 µg/mL (≈ 5.16 µM)
MIC PA 14 (Pseudomonas aeruginosa; Mueller Hinton medium): 0.5 µg/mL (≈ 0.165 µM)
MIC PAK (Pseudomonas aeruginosa; Mueller Hinton medium): 3.9 µg/mL (≈ 1.29 µM)
MIC WR 5 (Pseudomonas aeruginosa; Mueller Hinton medium): 15.6 µg/mL (≈ 5.16 µM)
MIC GM (geometric mean) [2]: 7.3 µM (≈ 22.1 µg/mL)
PA (dimerization / self-association parameter) [3]: 6.00
Hydrophobicity (retention time in RP-HPLC) [4]: 93.77 min

CC[C@@H](C)[C@@H](NC(=O)[C@@H](C)NC(=O)[C@@H](CCCCN)NC(=O)[C@@H](CC(C)C)NC(=O)[C@@H](CC(C)C)NC(=O)[C@H](NC(=O)[C@@H](CCCCN)NC(=O)[C@@H](CC(C)C)NC(=O)[C@@H](C)NC(=O)[C@@H](CCCCN)NC(=O)[C@@H](CCCCN)NC(=O)[C@@H](CCCCN)NC(=O)[C@@H](C)NC(=O)[C@@H](CCCCN)NC(=O)[C@@H](CO)NC(=O)[C@@H](Cc1ccccc1)NC(=O)[C@H](NC(=O)[C@@H](CCCCN)NC(=O)[C@@H](CC(C)C)NC(=O)[C@@H](Cc1ccccc1)NC(=O)[C@@H](CO)NC(=O)[C@@H](CCCCN)NC(=O)[C@@H](Cc1c[nH]c2ccccc12)NC(=O)[C@@H](CCCCN)NC(C)=O)[C@H](C)O)[C@H](C)O)C(=O)N[C@H](CO)C(=O)N[C@H](CCCCN)C(N)=O [Peptide D22, Ac-KWKSFLKTFSKAKKKALKTLLKAISK-amide]
MIC GM (geometric mean) (Acinetobacter baumannii): 0.8 µM (≈ 2.45 µg/mL)
Acinetobacter baumannii MICGM (Acinetobacter baumannii; geometric mean, 11 different isolates, 24 hours at 37° C.): 0.8 µM
HC50 at 18 h [1]: 249 µg/mL and 81.3 µM
MIC PAO 1 (Pseudomonas aeruginosa; Brain Heart Infusion medium): 15.6 µg/mL (≈ 5.09 µM)
MIC GM (geometric mean of the MIC values) (Pseudomonas aeruginosa; Brain Heart Infusion medium): 9.8 µg/mL
MIC CP 204 (Pseudomonas aeruginosa; Brain Heart Infusion medium): 31.3 µg/mL (≈ 10.2 µM)
MIC M 2 (Pseudomonas aeruginosa; Brain Heart Infusion medium): 3.9 µg/mL (≈ 1.27 µM)
MIC PA 14 (Pseudomonas aeruginosa; Brain Heart Infusion medium): 3.9 µg/mL (≈ 1.27 µM)
MIC PAK (Pseudomonas aeruginosa; Brain Heart Infusion medium): 7.8 µg/mL (≈ 2.55 µM)
MIC WR 5 (Pseudomonas aeruginosa; Brain Heart Infusion medium): 15.6 µg/mL (≈ 5.09 µM)
MIC PAO 1 (Pseudomonas aeruginosa; Mueller Hinton medium): 3.9 µg/mL (≈ 1.27 µM)
MIC GM (geometric mean of the MIC values) (Pseudomonas aeruginosa; Mueller Hinton medium): 7.0 µg/mL
MIC CP 204 (Pseudomonas aeruginosa; Mueller Hinton medium): 31.3 µg/mL (≈ 10.2 µM)
MIC M 2 (Pseudomonas aeruginosa; Mueller Hinton medium): 15.6 µg/mL (≈ 5.09 µM)
MIC PA 14 (Pseudomonas aeruginosa; Mueller Hinton medium): 0.5 µg/mL (≈ 0.163 µM)
MIC PAK (Pseudomonas aeruginosa; Mueller Hinton medium): 3.9 µg/mL (≈ 1.27 µM)
MIC WR 5 (Pseudomonas aeruginosa; Mueller Hinton medium): 31.3 µg/mL (≈ 10.2 µM)
Pseudomonas aeruginosa MICGM (Pseudomonas aeruginosa; geometric mean, 6 different isolates, 24 hours at 37° C.): 2.3 µM
MIC GM (geometric mean) [2]: 12.1 µM (≈ 37.1 µg/mL)
PA (dimerization / self-association parameter) [3]: 5.13
Hydrophobicity (retention time in RP-HPLC) [4]: 90.7 min and 90.67 min
